# Target: PKM2 (Homo sapiens, UniProt P14618)
# Experiment: PKM2 Biochemical Assay
# Conditions: % maximum response in a biochemical assay as compared with Fructose 1,6-bisphosphate
# Chain of PKM2 (P14618 whole entry): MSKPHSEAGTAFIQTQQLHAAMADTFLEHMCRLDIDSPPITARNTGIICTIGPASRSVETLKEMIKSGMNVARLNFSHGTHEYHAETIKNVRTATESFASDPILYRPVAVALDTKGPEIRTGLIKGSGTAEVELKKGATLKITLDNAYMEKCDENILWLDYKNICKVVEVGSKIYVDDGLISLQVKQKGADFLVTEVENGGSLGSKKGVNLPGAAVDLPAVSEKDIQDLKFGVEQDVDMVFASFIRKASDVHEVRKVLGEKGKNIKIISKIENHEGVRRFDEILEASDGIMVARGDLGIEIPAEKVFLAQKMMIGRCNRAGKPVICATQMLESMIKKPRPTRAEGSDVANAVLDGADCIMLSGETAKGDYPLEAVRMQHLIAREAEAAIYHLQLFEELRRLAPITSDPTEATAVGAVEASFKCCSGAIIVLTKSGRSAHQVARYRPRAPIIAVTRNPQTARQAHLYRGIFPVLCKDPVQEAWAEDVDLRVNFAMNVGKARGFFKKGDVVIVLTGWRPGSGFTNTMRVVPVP
row,Structure (SMILES),Max. Resp.
1,"O=C(c1cc(C(F)(F)F)n[nH]1)N(CCC1CC[S+]([O-])CC1)Cc1ccccc1Cl (centres unmarked) [Example 74, N-(2-CHLOROBENZYL)-N-(2-(1-OXIDOTETRAHYDRO-2H-THIOPYRAN-4-YL)ETHYL)-3-(TRIFLUOROMETHYL)-1H-PYRAZOLE-5-CARBOXAMIDE]",95%
2,O=C(c1cc(C(F)(F)F)n[nH]1)N(CCC1CCS(=O)(=O)C1)Cc1ccc(O)cc1F (centres unmarked) [Example 76],93%
3,Nc1ccccc1CN(CCC1CCS(=O)(=O)C1)C(=O)c1cc(C(F)(F)F)n[nH]1 (centres unmarked) [Example 77],43%
4,O=C(c1cc(C(F)(F)F)n[nH]1)N(CCC1CCSCC1)Cc1ccccc1F [Example 79],95%
5,O=C(c1cc(Cl)n[nH]1)N(CCC1CCSCC1)Cc1ccccc1F [Example 80],46%
6,O=C(c1cc(Cl)n[nH]1)N(CCC1CCS(=O)(=O)CC1)Cc1ccccc1F [Example 81],72%
7,O=C(c1cc(Br)n[nH]1)N(CCC1CCSCC1)Cc1ccccc1F [Example 82],74%
8,O=C(c1cc(Br)n[nH]1)N(CCC1CCS(=O)(=O)CC1)Cc1ccccc1F [Example 83],98%
9,O=C(c1cc(C(F)(F)F)n[nH]1)N(CCC1CCSCC1)Cc1c(F)cccc1F [Example 84],73%
10,O=C(c1cc(C(F)(F)F)n[nH]1)N(CCC1CCS(=O)(=O)CC1)Cc1c(F)cccc1F [Example 85],100%
11,O=C(c1cc(C(F)(F)F)n[nH]1)N(CCC1CCSCC1)Cc1ccc(O)cc1F [Example 86],98%
12,O=C(c1cc(C(F)(F)F)n[nH]1)N(CCC1CCS(=O)(=O)CC1)Cc1ccc(O)cc1F [Example 87],100%
13,O=C(c1cc(C(F)(F)F)n[nH]1)N(CCC1CCS(=O)(=O)C1)Cc1ccccn1 (centres unmarked) [Example 88],96%
14,O=C(c1cc(C(F)(F)F)n[nH]1)N(CCC1CCS(=O)(=O)C1)Cc1ccncc1 (centres unmarked) [Example 89],35%
15,O=C(c1cc(C(F)(F)F)n[nH]1)N(CCC1CCS(=O)(=O)C1)Cc1cccnc1 (centres unmarked) [Example 90],24%
16,O=C(c1cc(C(F)(F)F)n[nH]1)N(CCC1CCS(=O)(=O)C1)Cc1ncccc1Cl (centres unmarked) [Example 92],74%
17,O=C(c1cc(C(F)(F)F)n[nH]1)N(CCC1CCS(=O)(=O)C1)Cc1cncs1 (centres unmarked) [Example 93],26%
18,"O=C(c1cc(C(F)(F)F)n[nH]1)N(CCC1CCS(=O)(=O)C1)Cc1cccc([N+](=O)[O-])c1Cl (centres unmarked) [Example 94, N-(2-chloro-3-nitrobenzyl)-N-(2-(1,1-dioxidotetrahydrothiophen-3-yl)ethyl)-3-(trifluoromethyl)-1H-pyrazole-5-carboxamide]",69%
19,O=C(c1cc(C(F)(F)F)n[nH]1)N(CCC1CCNCC1)Cc1ccccc1F [Example 98],56%
20,CS(=O)(=O)N1CCC(CCN(Cc2ccccc2F)C(=O)c2cc(C(F)(F)F)n[nH]2)CC1 [Example 99],100%
21,CN1CCC(CN(Cc2ccccc2F)C(=O)c2cc(C(F)(F)F)n[nH]2)CC1 [Example 100],29%
22,CN1CCN(CCN(Cc2ccccc2F)C(=O)c2cc(C(F)(F)F)n[nH]2)CC1 [Example 103],42%
23,CN1CCN(CCN(Cc2ccccc2Cl)C(=O)c2cc(C(F)(F)F)n[nH]2)CC1 [Example 104],63%
24,CCN1CCC(CCN(Cc2c(Cl)cccc2Cl)C(=O)c2cc(C(F)(F)F)n[nH]2)CC1 [Example 105],71%
25,CCN1CCN(CCN(Cc2ccccc2F)C(=O)c2cc(C(F)(F)F)n[nH]2)CC1 [Example 106],115%
26,O=C(c1cc(C(F)(F)F)n[nH]1)N(CCN1CCS(=O)(=O)CC1)Cc1ccccc1Cl [Example 107],85%

# — US10766865B2, “PKM2 modulators and methods for their use” (TOLERO PHARMACEUTICALS, INC., priority 2012, dated 2020)
